Measurements reported in patent publication US8039430B2 (University of Wollongong, priority 2005, dated 2011).
In brackets after ≈: the same amount, converted by molar mass. Like-named read-outs stand apart in the source and are kept apart here.

How the values were obtained:
[1] = tested on: #449 E. faecium van B ST17; assay: Antibacterial assay (MIC), VRE strain #449, Enterococossel Broth, Example 1; assay type: cell-based, Enterococcus faecium; conditions: Enterococcus faecium, read-out: 449 (minimum inhibitory concentration)
Experimental: (§1) Antibacterial Assay Method for Staphylococcus aureus (ATCC 6538P) and Enterococcus faecium
(§2) VRE strains: #243 E. faecium van B ST17 #449 E. faecium van B ST17
(§3) Compounds are accurately weighed out (between approx. 1-2 mg) and dissolved in either 10% methanol/water (v/v) or 100% DMSO to a final stock concentration of 5 mg/ml.
(§4) Compounds are then diluted 1/10 in H2O to a test conc of 500 ug/ml ready for immediate use, or storage at −20° C.
(§5) Grow up an o/n starter culture of Staphylococcus aureus and each VRE strain by diluting previous culture (stored at 4° C.) 1/1000 into −50 mls Luria Broth (LB) for S. aureus or Enterococossel Broth (EB) for the VRE strains.
(§6) Incubate o/n at 37° C.+shaking. • A glycerol stock (0.6 mls bacterial culture, 0.3 mls glycerol) of each strain is kept at −80° C. if needed. Assay Set Up:
(§7) In a 96well round bottom plate add 50 ul LB/well for the S. aureus plate and add 50 ul EB/well for the VRE plates.
(§8) Add 50 ul of compound dilution (500 ug/ml test conc) to each of three top row wells (ie: tested in triplicate) and dilute 1 in 2 from the top row to the bottom row.
(§9) After the compound dilution, add to each well 50 ul of a 1/1000 dilution of the appropriate overnight bacterial culture, either S. aureus or the different VRE strains.
(§10) Plates are incubated at 37° C. on a slowly rotating plate incubator. • test concentrations are (in ug/ml) 125, 62.5, 31.25, 15.6, 7.8, 3.9, 1.9, 0.98 • final DMSO concentration in the first row of wells of the assay is 2.5% • Vancomycin is included in the assay (in triplicate) at a starting test concentration of 5 ug/ml for S. aureus and 125 ug/ml for the VRE strains Reading Results of Assay:
(§11) After incubation for 24 hrs the plates are removed and read. Inhibition of bacterial growth is indicated by lack of bacterial pellet or a clear well. In the VRE plates bacterial growth is indicated by black coloured media (EB) as well as a bacterial pellet.
(§12) Untreated control wells are included in the assay to check they all contain bacterial pellets. Uninoculated untreated control wells are included to check they all contain clear medium.
(§13) The plates are analysed for MIC and the results tabulated.

[2] = tested on: #820 E. faecium van A ST17; assay: Antibacterial assay (MIC), VRE strain #820, Enterococossel Broth, Example 1; assay type: cell-based, Enterococcus faecium; conditions: Enterococcus faecium, read-out: 820 (minimum inhibitory concentration)
Experimental: as §1
(§14) #820 E. faecium van A ST17 #987 E. faecium van B ST39
as §3, §4, §5, §6, §7, §8, §9, §10, §11, §12, §13

[3] = tested on: Staphylococcus aureus (ATCC 6538P); assay: Antibacterial assay (MIC), Staphylococcus aureus ATCC 6538P, Luria Broth, Example 1; assay type: cell-based; conditions: Staphylococcus aureus, ATCC6538P, read-out: Sa (minimum inhibitory concentration)
Experimental: as §1
Staphylococcus aureus (ATCC 6538P)
as §3, §4, §5, §6, §7, §8, §9, §10, §11, §12, §13

[4] = tested on: #243 E. faecium van B ST17; assay: Antibacterial assay (MIC), VRE strain #243, Enterococossel Broth, Example 1; assay type: cell-based, Enterococcus faecium; conditions: Enterococcus faecium, read-out: 243 (minimum inhibitory concentration)
Experimental: as §1, §2, §3, §4, §5, §6, §7, §8, §9, §10, §11, §12, §13

[5] = tested on: #987 E. faecium van B ST39; assay: Antibacterial assay (MIC), VRE strain #987, Enterococossel Broth, Example 1; assay type: cell-based, Enterococcus faecium; conditions: Enterococcus faecium; Example 1 compounds; VRE #987 E. faecium van B; 24 hrs, 37° C.; read-out: 987 (minimum inhibitory concentration)
Experimental: as §1, §14, §3, §4, §5, §6, §7, §8, §9, §10, §11, §12, §13

[6] = Example 1 compounds, VRE #449 E. faecium van B, 24 hrs, 37° C.
[7] = Example 1 compounds, VRE #820 E. faecium van A, 24 hrs, 37° C.
[8] = Example 1 compounds, S. aureus ATCC 6538P, 24 hrs, 37° C., range if at least two of three values fell within it
[9] = Example 1 compounds, VRE #243 E. faecium van B, 24 hrs, 37° C.

Row | SMILES | MIC [1, 6] | MIC [2, 7] | MIC [3, 8] | MIC [4, 9] | MIC [5] | MIC ([3]; 24 h) | MIC ([4]; VRE, 24 h) | MIC ([1]; VRE, 24 h) | MIC ([2]; VRE, 24 h)
1 | CC(C)CCOc1ccc2ccccc2c1-c1c(OCC(=O)N[C@H](CCCCN)C(=O)N[C@H](CCCNC(=N)N)C(=O)N[C@@H](CC(C)C)C(=O)OCc2ccccc2Cl)ccc2ccccc12.Cl.Cl (atropisomer, axis not shown) [Compound 7] | 15.7 to 62.5 µg/mL | 15.7 to 62.5 µg/mL | 0.99 to 15.6 µg/mL | 15.7 to 62.5 µg/mL | 15.7 to 62.5 µg/mL |  |  |  | 
2 | N=C(N)NCCC[C@@H](NC(=O)CCCOc1ccc2ccccc2c1-c1c(OCCCC(=O)N[C@H](CCCNC(=N)N)C(=O)OCc2ccccc2)ccc2ccccc12)C(=O)OCc1ccccc1 [Compound 38] |  |  |  |  |  | 0.99 to 15.6 µg/mL (≈ 1.04 to 16.4 µM) | 15.7 to 62.5 µg/mL (≈ 16.5 to 65.7 µM) |  | 
3 | N=C(N)NCCC[C@@H](NC(=O)CCCOc1ccc2ccccc2c1-c1c(OCCCC(=O)N[C@H](CCCNC(=N)N)C(=O)OCc2ccccn2)ccc2ccccc12)C(=O)OCc1ccccn1 [Compound 37] | > 62.6 µg/mL | > 62.6 µg/mL | 0.99 to 15.6 µg/mL (≈ 1.04 to 16.4 µM) | > 62.6 µg/mL | > 62.6 µg/mL |  |  |  | 
4 | C=CC[C@H](NC(=O)[C@@H](CCCNC(=N)N)NC(=O)[C@@H](CCCCN)NC(=O)COc1ccc2ccccc2c1-c1c(OCC(C)(C)C)ccc2ccccc12)C(=O)OCc1ccccc1 [Compound 27] | 15.7 to 62.5 µg/mL (≈ 17.7 to 70.5 µM) | 15.7 to 62.5 µg/mL (≈ 17.7 to 70.5 µM) | 0.99 to 15.6 µg/mL (≈ 1.12 to 17.6 µM) | 15.7 to 62.5 µg/mL (≈ 17.7 to 70.5 µM) | > 62.6 µg/mL |  |  |  | 
5 | C=CCOc1ccc2ccccc2c1-c1c(OCC(=O)N[C@H](CCCCN)C(=O)N[C@H](CCCNC(=N)N)C(=O)N[C@@H](CC(C)C)C(=O)OCc2ccccc2)ccc2ccccc12.Cl.Cl (atropisomer, axis not shown) [Compound 22] | 15.7 to 62.5 µg/mL | 15.7 to 62.5 µg/mL | 0.99 to 15.6 µg/mL | 15.7 to 62.5 µg/mL | 15.7 to 62.5 µg/mL |  |  |  | 
6 | C=CC[C@H](NC(=O)[C@@H](CCCNC(=N)N)NC(=O)[C@@H](CCCCN)NC(=O)COc1ccc2ccccc2c1-c1c(OCCC(C)C)ccc2ccccc12)C(=O)OCc1ccccc1.Cl.Cl (atropisomer, axis not shown) [Compound 29] | 0.99 to 15.6 µg/mL | 0.99 to 15.6 µg/mL | 0.99 to 15.6 µg/mL | 15.7 to 62.5 µg/mL | 15.7 to 62.5 µg/mL |  |  |  | 
7 | CC(C)CCOc1ccc2ccccc2c1-c1c(OCC(=O)N[C@H](CCCCN)C(=O)N[C@H](CCCNC(=N)N)C(=O)N[C@@H](CC(C)C)C(=O)OCc2ccc(Cl)cc2)ccc2ccccc12.Cl.Cl (atropisomer, axis not shown) [Compound 4] | 15.7 to 62.5 µg/mL | 15.7 to 62.5 µg/mL | 0.99 to 15.6 µg/mL | 15.7 to 62.5 µg/mL | 15.7 to 62.5 µg/mL |  |  |  | 
8 | Cl.Cl.N=C(N)NCCCC[C@@H](NC(=O)CCCOc1ccc2ccccc2c1-c1c(OCCCC(=O)N[C@H](CCCCNC(=N)N)C(=O)OCc2ccccc2)ccc2ccccc12)C(=O)OCc1ccccc1 (atropisomer, axis not shown) [Compound 39] | 15.7 to 62.5 µg/mL | 15.7 to 62.5 µg/mL | 0.99 to 15.6 µg/mL | > 62.6 µg/mL | > 62.6 µg/mL |  |  |  | 
9 | C=CC[C@H](NC(=O)[C@@H](CCCNC(=N)N)NC(=O)[C@@H](CCCCN)NC(=O)COc1ccc2ccccc2c1-c1c(OCC(C)C)ccc2ccccc12)C(=O)OCc1ccccc1.Cl.Cl (atropisomer, axis not shown) [Compound 25] | 15.7 to 62.5 µg/mL | 15.7 to 62.5 µg/mL | 0.99 to 15.6 µg/mL | 15.7 to 62.5 µg/mL | 15.7 to 62.5 µg/mL |  |  |  | 
10 | Cl.Cl.NCCCC[C@@H](NC(=O)CCCOc1ccc2ccccc2c1-c1c(OCCCC(=O)N[C@H](CCCCN)C(=O)OCc2cccc3ccccc23)ccc2ccccc12)C(=O)OCc1cccc2ccccc12 (atropisomer, axis not shown) [Compound 35] | > 62.6 µg/mL | 15.7 to 62.5 µg/mL | 0.99 to 15.6 µg/mL | > 62.6 µg/mL | > 62.6 µg/mL |  |  |  | 
11 | COC(=O)[C@@H](CCCNC(=N)N)NC(=O)CCCOc1ccc2ccccc2c1-c1c(OCCCC(=O)N[C@H](CCCNC(=N)N)C(=O)OC)ccc2ccccc12 [Compound 33] |  |  |  |  |  | 0.99 to 15.6 µg/mL (≈ 1.24 to 19.5 µM) |  | > 62.6 µg/mL | > 62.6 µg/mL
